What was measured:
[1] = molecular target: T1, hERG potassium ion channel (Homo sapiens, UniProt Q12809); assay: Effect on hERG potassium ion channel (CHO hERG cells, manual patch clamp); assay type: cell-based; conditions: final 10 μM test concentration, read-out: hERG inhibitory concentration IC50
T1 construct: host or cells: CHO
Procedure: Assay 2: Effect on hERG Potassium Ion Channel 2.1 Cell Culture 2.1.1 Cells used in this experiment were CHO cell lines (supplied by Sophion Bioscience, Denmark) which were hERG cDNA transfectant and stably express hERG channels, and cell progeny was P15. Cells were cultured in medium containing the following ingredients Invitrogen): Ham's F12 medium, 10% (v/v) inactivated fetal bovine serum, […] Geneticin. 2.1.2 CHO hERG cells were grown in Petri dishes containing the above medium and cultured in an incubator containing 5% CO2 at 37° C. CHO hERG cells were transferred onto round glass plates in Petri dishes, and grown on the same culture medium under culture conditions as above for 24 h to 48 h prior to the electrophysiological experiments, and the density of CHO hERG cells on each round glass plate needs to meet the requirements that the vast majority of cells are independent and individual. 2.2 Experimental Solution The following solutions (supplied by Sophion) were used for electrophysiological recording as shown in Table 3. The reagents used in this test were provided by Sigma. [table] 2.3 Electrophysiological Recording System In this experiment, whole-cell current recording was performed using a manual patch clamp system (HEKA EPC-10 signal amplification and digital conversion system, purchased from HEKA Electronic, Germany). The round glass slide, surface of which CHO hERG cells were grown on was placed in an electrophysiological recording slot under an inverted microscope. Extracellular fluid was used for steady perfision in recording slot (approximately 1 ml per minute). A conventional whole-cell patch clamp current recording technique was used in the experiment. Unless otherwise specified, experiments were performed at normal room temperature (25° C.). Cell clamping was at −80 mV. Cell clamping voltage depolarized to +20 mV to activate hERG potassium channel, clamping to −50 mV after 5 sec to eliminate inactivation and generate tail currents. The tail current peak was used as a value for hERG current. The hERG potassium current recorded in the above steps could be superfused for test drug after the steady perfusion state of the extracellular fluid in the recording slot is stabilized until the inhibition of the hERG current by the drug reached a steady state. The coincidence of the last three consecutive current recording lines was generally used as a criterion to determine whether the state is stable. After reaching a steady state, perfused with extracellular fluid until hERG current returned to the value before the drug adding. One or more drugs could be tested on a single cell, or multiple concentrations of the same drug, but needed to be rinsed with extracellular fluid between different drugs. […] 2.4 Compound Treatment and Dilution The compound was firstly dissolved in DMSO to a concentration of 10 mM and then the compound was diluted 1000-fold to the final […] test concentration using an extracellular solution. The final concentration of DMSO in the compound test solution was equal to 0.1%. […] All stock solutions and test solutions were subjected to regular 5-10 minute sonication and shaken to ensure complete dissolution of the compound. 2.5 Data Analysis The test data were analyzed by the data analysis software provided by HEKA Patchmaster (V2x73.2), Microsoft Excel and Graphpad Prism 5.0.

[2] = molecular target: T2, hNav1.7 (Homo sapiens, UniProt Q15858); assay: Manual patch clamp experiment hNav1.7 (CHO-hNav1.7 stable cell line); assay type: cell-based; conditions: for inhibition at 0.1 µM: compound at 100 nM, read-out: Inhibition of Nav1.7 100 nM(%); for inhibition at 1 µM: compound at 1000 nM, read-out: Inhibition of Nav1.7 1000 nM(%)
T2 construct: host or cells: CHO
From the text: Assay 1: Manual Patch Clamp Experiment of Sodium Ion (hNav1.7, hNav1.5 and hNaV1.8) and Calcium Ion (hCav3.2) Channels
hNav1.7, hNav1.5 Manual Patch Clamp Experiment:
Patch voltage clamp electrophysiology allows for the direct measurement and quantification of current block of voltage-gated sodium channels (NaV's), and allows the determination of the time and voltage-dependence of block which has been interpreted as differential binding to the resting, open and inactivated states of the sodium channel to reflect the compound's inhibitory or activating effects (Hille, B., Journal of General Physiology (1977), 69: 497-515).
Representative compounds of the present invention were subject to a manual patch clamp experiment and the purpose of this study was to test the effect of compounds on this ion channel current on a stable cell line transfected with a specific ion channel using a manual patch clamp method. The used stable cell lines CHO-hNav1.7 and HEK-hNav1.5 were from Genionics and WuXi Apptec (Shanghai) respectively.
Manual patch clamp experimental program is as follows:
(1) Preparation of solutions and compounds: The whole cell patch clamp technique was used to record hNav1.7 and hNav1.5 currents. In the experiment, the composition of extracellular fluid (mM): HEPES: 5, NaCl: 40, KCl: CaCl2: 1, MgCl2: 1, CdCl2: 0.1, TEA-Cl: 20. The pH was adjusted to 7.3 with NaOH and the osmotic pressure was adjusted to 310-320 mOsm with sucrose, filtered and stored at 4° C. The composition of the intracellular fluid (mM): HEPES: 10, NaCl: 10, CsOH: 5, CsF: 140, EGTA: 1. The pH was adjusted to 7.3 with CsOH and the osmotic pressure was adjusted to 280-290 mOsm with sucrose, filtered and stored at −20° C.
The positive control and the test compound were firstly dissolved in 100% DMSO (Sigma-Aldrich, D2650), configured as stock solution at a concentration (100 nM, 1000 nM).) The above stock solution was serially diluted with DMSO prior to the experiment, the solution was further diluted with extracellular solution to obtain the test solution of the desired concentration.
(2) Manual Patch Clamp Experiment: The cell suspension was added to a 35 mm petri dish and placed on an inverted microscope stage. The cells were perfused with an extracellular fluid and the flow rate was 1-2 mL/min after cell adherence. The glass microelectrode was prepared in two steps by a microelectrode puller with an inlet water resistance of 2-5 MΩ. A/D-D/A digital-analog conversion was performed by Digidata 1440 (Molecular Devices) and pCLAMP software (version 10.2, Molecular Devices) for stimulation and signal acquisition; the signal was amplified by patch clamp amplifier (Multiclamp 700B, Molecular Devices), and filtering is 4 KHz.
Two different voltage stimulation procedures were used in the hNav1.7 and hNav1.5 manual patch clamp experiments.
One is the inactivation stimulation program, the clamp potential is set at V1/2 of the corresponding channel, i.e., about 50% of the channels are inactivated, then the voltage is applied to −120 mV for 50 ms, then depolarized to −10 mV for 20 ms leading to sodium current, and finally returned to the clamp potential. This stimulation program can also be called channel state-dependent voltage stimulation program.
The other is the non-inactivation stimulation program, the clamp potential is maintained at −120 mV, voltage stimulation is given to −10 mV for 20 ms leading to sodium current, and finally returned to the clamp potential. That is, all channels have not experienced inactivation status, but activate directly from the resting state under the conditions of the stimulation program.
The time intervals of these two voltage stimulation programs were 10 s. The inhibitory effect of the compound was calculated by the change of the current before and after dosing, the IC50 value was fitted by the Hill equation.

T1 sequence (Q12809 whole entry): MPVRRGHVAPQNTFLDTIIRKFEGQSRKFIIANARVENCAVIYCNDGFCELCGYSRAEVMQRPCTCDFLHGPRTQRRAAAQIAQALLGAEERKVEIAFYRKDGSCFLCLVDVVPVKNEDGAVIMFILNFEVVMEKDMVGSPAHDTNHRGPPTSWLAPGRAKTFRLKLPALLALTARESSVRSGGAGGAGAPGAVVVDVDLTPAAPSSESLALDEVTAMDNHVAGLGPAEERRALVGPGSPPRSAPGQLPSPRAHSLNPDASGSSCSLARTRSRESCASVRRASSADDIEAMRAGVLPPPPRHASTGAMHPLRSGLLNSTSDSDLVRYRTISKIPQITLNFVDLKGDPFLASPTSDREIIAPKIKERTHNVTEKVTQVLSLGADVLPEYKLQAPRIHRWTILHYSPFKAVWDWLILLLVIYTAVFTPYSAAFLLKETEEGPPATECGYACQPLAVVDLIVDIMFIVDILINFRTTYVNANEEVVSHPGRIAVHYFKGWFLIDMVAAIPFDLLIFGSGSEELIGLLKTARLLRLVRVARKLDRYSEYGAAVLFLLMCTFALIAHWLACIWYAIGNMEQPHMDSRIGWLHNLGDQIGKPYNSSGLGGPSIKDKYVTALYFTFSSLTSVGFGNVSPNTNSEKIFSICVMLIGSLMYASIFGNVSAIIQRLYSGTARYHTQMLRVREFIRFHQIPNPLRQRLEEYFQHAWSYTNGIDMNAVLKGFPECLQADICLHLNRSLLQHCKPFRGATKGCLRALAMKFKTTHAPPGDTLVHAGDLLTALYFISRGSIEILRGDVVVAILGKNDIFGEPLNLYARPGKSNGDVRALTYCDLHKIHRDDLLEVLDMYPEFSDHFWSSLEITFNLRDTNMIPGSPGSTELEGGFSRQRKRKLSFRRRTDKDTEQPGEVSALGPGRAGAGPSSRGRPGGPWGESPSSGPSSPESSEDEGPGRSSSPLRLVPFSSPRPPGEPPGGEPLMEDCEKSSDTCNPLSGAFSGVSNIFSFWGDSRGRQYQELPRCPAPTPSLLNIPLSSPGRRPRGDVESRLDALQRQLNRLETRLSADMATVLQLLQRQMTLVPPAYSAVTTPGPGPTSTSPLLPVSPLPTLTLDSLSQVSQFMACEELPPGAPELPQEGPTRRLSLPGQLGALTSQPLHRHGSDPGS
T2 sequence (Q15858 whole entry): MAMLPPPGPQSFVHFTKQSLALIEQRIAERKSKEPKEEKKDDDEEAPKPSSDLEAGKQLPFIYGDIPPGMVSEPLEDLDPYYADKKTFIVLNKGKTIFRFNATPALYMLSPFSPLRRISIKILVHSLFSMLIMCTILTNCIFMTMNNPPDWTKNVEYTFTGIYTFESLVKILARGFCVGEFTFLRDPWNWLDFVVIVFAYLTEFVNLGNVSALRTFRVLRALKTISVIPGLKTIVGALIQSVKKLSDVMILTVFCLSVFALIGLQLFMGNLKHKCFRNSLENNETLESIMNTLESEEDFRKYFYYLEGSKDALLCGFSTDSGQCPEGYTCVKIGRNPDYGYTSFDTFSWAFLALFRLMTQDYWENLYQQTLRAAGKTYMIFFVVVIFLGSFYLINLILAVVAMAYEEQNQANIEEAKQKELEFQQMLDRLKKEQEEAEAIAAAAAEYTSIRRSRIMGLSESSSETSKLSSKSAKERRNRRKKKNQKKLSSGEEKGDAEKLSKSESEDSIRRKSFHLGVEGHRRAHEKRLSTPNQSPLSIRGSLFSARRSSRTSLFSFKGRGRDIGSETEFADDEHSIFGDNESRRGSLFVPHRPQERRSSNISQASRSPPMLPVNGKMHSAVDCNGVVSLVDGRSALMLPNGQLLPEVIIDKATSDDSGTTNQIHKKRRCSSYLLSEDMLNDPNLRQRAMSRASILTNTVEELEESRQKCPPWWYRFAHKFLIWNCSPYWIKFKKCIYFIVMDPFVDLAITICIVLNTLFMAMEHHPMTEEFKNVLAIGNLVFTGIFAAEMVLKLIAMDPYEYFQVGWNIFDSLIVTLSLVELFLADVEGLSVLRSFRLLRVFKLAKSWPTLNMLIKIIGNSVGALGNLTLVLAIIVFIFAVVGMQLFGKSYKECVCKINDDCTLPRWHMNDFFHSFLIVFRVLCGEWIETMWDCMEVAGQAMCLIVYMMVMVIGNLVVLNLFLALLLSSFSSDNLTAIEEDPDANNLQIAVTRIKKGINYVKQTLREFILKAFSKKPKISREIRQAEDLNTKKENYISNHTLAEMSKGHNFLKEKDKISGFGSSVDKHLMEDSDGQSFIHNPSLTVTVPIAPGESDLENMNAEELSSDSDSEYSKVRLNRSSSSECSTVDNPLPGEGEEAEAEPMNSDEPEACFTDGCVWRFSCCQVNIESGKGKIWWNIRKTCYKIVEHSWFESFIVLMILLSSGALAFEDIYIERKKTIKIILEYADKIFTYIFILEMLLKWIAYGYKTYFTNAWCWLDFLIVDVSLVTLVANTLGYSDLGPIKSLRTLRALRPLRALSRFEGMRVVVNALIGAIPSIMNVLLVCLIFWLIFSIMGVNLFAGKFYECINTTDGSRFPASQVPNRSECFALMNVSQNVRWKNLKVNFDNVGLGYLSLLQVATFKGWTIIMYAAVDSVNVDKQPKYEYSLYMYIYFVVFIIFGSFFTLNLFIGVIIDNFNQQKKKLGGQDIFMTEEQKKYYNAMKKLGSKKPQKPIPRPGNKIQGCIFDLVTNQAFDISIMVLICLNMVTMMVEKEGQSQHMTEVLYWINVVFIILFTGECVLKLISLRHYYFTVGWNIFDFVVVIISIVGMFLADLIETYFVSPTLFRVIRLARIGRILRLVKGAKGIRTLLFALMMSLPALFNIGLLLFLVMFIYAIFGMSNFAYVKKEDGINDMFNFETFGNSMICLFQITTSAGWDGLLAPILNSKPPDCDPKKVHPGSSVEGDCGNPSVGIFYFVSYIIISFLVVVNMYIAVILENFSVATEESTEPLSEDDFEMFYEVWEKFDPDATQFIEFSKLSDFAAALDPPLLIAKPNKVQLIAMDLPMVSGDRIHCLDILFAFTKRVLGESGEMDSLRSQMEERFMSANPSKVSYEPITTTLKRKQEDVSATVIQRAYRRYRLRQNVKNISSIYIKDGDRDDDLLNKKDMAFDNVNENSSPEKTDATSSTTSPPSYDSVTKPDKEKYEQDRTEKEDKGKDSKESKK

SMILES | IC50 [1] [µM] | inhibition at 0.1 µM [2] [%] | inhibition at 1 µM [2] [%]
Cc1cc(N2CCN(Cc3cc(F)c(C(=O)NS(=O)(=O)C4CC4)cc3Cl)CC2)c(C)cc1Cl [Compound Z-183] | > 10 | 90.8 | 99.5
Cc1cc(N2CCN(Cc3cc(F)c(C(=O)NS(=O)(=O)C4CC4)cc3Cl)CC2)c(F)cc1Cl [Compound Z-186] | > 10 | 83.3 | 100
Cc1c(Cl)ccc(N2CCN(Cc3cc(F)c(C(=O)NS(=O)(=O)C4CC4)cc3Cl)CC2)c1Cl [Compound Z-187] | > 10 | 89.7 | 100
